Patent US5605929A, “Methods and compositions for inhibiting 5α-reductase activity” (priority 1995, dated 1997)
Where “and” joins values, the source holds several entries; their conditions need not be identical. Identical values can stand only once.

Columns and labels:
[1] = test system: ventral prostate and preputial organ
Excerpt: Male Sprague-Dawley rats, 60±5 g body weight, were used. Each group had 6 rats, and all were castrated.

[2] = target: T1, human 5α-reductase isozyme type 2 (Homo sapiens, UniProt P31213); assay: [3H]4-MA binding, human type 2 isozyme expressed in Rat-1A cells; conditions: read-out: % Inhibition of [^3 H]4-MA binding
T1 construct: expressed in transfected cells; host or cells: Rat-1A cells infected with pMV7 retrovirus; microsomes of these cells
T1 sequence (P31213 1-254): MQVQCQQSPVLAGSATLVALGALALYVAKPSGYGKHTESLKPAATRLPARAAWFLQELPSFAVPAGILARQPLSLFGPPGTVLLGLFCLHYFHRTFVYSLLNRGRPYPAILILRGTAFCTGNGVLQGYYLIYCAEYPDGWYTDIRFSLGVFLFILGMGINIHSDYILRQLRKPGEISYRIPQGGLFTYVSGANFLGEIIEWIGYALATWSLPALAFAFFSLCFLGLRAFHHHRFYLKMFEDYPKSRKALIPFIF
Excerpt: (§1) The cDNAs for the human type 1 and 2 5α-reductases were isolated from human prostate λZAP II™ cDNA libraries using the published sequence of the 5α-reductases, PCR™ and standard library screening techniques (Sambrook et al., 1989). The type 1 and 2 cDNAs correspond to nucleotides 31-870 and 28-829, respectively, of the published sequences for these 5α-reductases (Anderson and Russell, 1990; Anderson et al., 1991). The type 1 and 2 cDNAs were subcloned into the retroviral expression vector pMV7 (Kirschmeier et al., 1988) and high titer stocks of virus containing the type 1 and 2 cDNAs were generated using the packaging cells BOSC 23 293 (Kirschmeier et al., 1988). Rat.-1A cells (Pear et al., 1993) were infected with virus (Topp, 1981) and cells containing integrated retrovirus were selected for G418-SO4 resistance, (Brown and Scott, 1987).
(§2) Microsomes were prepared as described previously (Liang and Liao, 1992) from the liver of adult Sprague-Dawley female rats or Rat-1A cells expressing a specific type of human 5α-reductase. […] The data presented was based on the rate of reaction.
(§3) [^3 H]4-MA binding assay were described in detail previously (Liang and Liao, 1992; Liang et al., 1983). […] The reaction was started by the addition of 25 μl of microsomes (25 μg protein). After 30-60 min incubation at 0° C., the [^3 H]4-MA bound to microsomes was collected on a Whatman GF/F glass fiber, washed and radioactivity determined (Liang and Liao, 1992).

[3] = test system: human prostate cancer (PC3 and LNCaP) cells; assay: 5α-reduction of testosterone by human prostate cancer cells; format: cell-based
[4] = target: T2, human 5α-reductase isozyme type 1 (Homo sapiens, UniProt P18405); assay: [3H]4-MA binding, human type 1 isozyme expressed in Rat-1A cells; conditions: read-out: % Inhibition of [^3 H]4-MA binding
T2 construct: expressed in transfected cells; host or cells: Rat-1A cells infected with pMV7 retrovirus; microsomes of these cells
T2 sequence (P18405 1-259): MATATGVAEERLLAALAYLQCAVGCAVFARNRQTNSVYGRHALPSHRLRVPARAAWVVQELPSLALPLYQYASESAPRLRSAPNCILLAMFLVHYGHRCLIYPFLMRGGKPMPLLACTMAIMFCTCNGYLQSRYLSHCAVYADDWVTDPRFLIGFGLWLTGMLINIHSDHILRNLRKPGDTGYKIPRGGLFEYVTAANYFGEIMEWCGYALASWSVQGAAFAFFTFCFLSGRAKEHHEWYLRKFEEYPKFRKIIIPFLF
Excerpt: as §1, §2, §3

[5] = target: T2, human 5α-reductase isozyme type 1; assay: 4-[14C]testosterone reduction, human type 1 isozyme; format: biochemical; conditions: read-out: % Inhibition of 5α-reduction
Excerpt: as §1, §2
(§4) The reaction was started by the addition of 25 μl of microsomes (25 μg protein). The mixture was incubated at 37° for 30-60 min and stopped by addition of 0.5 ml of ethyl acetate and mixing for 1 min. The organic solvent extract was removed under vacuum.

[6] = target: T1, human 5α-reductase isozyme type 2; assay: 4-[14C]testosterone reduction, human type 2 isozyme; format: biochemical; conditions: for inhibition at 1 µM / inhibition at 3 µM / inhibition at 10 µM / inhibition at 30 µM / inhibition at 100 µM: read-out: % Inhibition of 5α-reduction
Excerpt: as §1, §2, §4

[7] = target: T3, 5α-Reductase of Rat Liver Microsomes (Rattus norvegicus, UniProt P24008)
T3 sequence (P24008 1-259): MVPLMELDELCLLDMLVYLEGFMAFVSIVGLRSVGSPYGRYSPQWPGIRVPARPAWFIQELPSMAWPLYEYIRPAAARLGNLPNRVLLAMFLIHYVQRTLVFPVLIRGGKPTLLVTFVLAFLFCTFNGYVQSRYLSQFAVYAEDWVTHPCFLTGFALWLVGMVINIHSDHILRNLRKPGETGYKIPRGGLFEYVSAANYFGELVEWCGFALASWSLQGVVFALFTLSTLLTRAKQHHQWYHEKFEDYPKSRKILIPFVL

Row | SMILES | reduction of weights of ventral prostate and preputial organ ([1]; 5 mg ip daily, 14 days) | general health / organ appearance ([1]; rat, in vivo) | inhibition at 1 µM [2] | inhibition at 3 µM [2] | inhibition at 10 µM [2] | inhibition at 30 µM [2] | inhibition at 100 µM [2] | 5α-DHT production by human prostate cancer cells [3] | inhibition at 1 µM [4] | inhibition at 3 µM [4] | inhibition at 10 µM [4] | inhibition at 30 µM [4] | inhibition at 100 µM [4] | inhibition at 1 µM [5] | inhibition at 3 µM [5] | inhibition at 10 µM [5] | inhibition at 30 µM [5] | inhibition at 1 µM [6] | inhibition at 3 µM [6] | inhibition at 10 µM [6] | further results
1 | O=C(O[C@@H]1Cc2c(O)cc(O)cc2O[C@@H]1c1cc(O)c(O)c(O)c1)c1cc(O)c(O)c(O)c1 [EGCG, (-)Epigallocatechin-3-gallate] | 10 to 35% | appeared to be as healthy as rats in other groups | < 10% | 12% | 55% | 72% | 89% | reduced 5α-DHT production | 29% | 47% | 77% | 88% | 86% | 22% | 23% | 34% | 89% | < 10% | < 10% | < 10% | reduction of body weight increase ([1]; 5 mg ip daily, 14 days): about 35%; fat content under the skin ([1]; rat, in vivo): appeared less; inhibition at 100 µM [5]: 98%; activity on type 2 isozyme ([6]; enzymatic assay, concentrations below 30 μM for ECG/EGCG): did not inhibit the Type 2 isozyme; inhibition at 30 µM [6]: < 10%; inhibition at 100 µM [6]: 73%
2 | CCCCC/C=C\C/C=C\C/C=C\CCCCC(=O)O [γ-Linolenic acid, γ-linolenic acid] | 10 to 35% | appeared to be as healthy as rats in other groups | 22% | 49% | 63% | 72% | 88% | can inhibit the conversion of testosterone to 5α-DHT | 20% | 54% | 65% | 79% | 85% | 31% | 52% | 89% | 99% | 30% | 48% | 60% | effect on body weight increase ([1]; 5 mg ip daily, 14 days): not EC or γ-LA; extent of inhibition by 10 μM γ-LA [7]: 93% and 52% and 88%; inhibition before removal of free γ-LA [7]: 78%; maximal binding of [^3 H]4-MA [7]: 0.45 pmol/10 μg protein and 0.40 pmol/10 μg protein; onset of inhibition [7]: within a minute; inhibition after microsomes reisolated to remove free γ-LA ([7]; reversibility test): 63%; IC50 ([3]; Homo sapiens, LNCaP, read-out: IC50 with the prostate cancer cells): 10 ± 5 µM; inhibition at 30 µM [6]: 88%; inhibition at 100 µM [6]: 99%
